e = 2'-O-(2-methoxyethyl) (MOE); d = 2'-deoxy (DNA)
Tests used:
Format in all cases: in vivo, mouse
murine Factor 7 mRNA [1] = experiment: Single dose pharmacokinetic assay: liver Factor 7 mRNA in BALB/c mice; details: single dose 50 mg/kg; for % Inhibition: liver Factor 7 mRNA, BALB/c mice
Protocol: The half-life and duration of action of ISIS 403102 in mice was evaluated. A group of 27 BALB/c mice was injected with 50 mg/kg of ISIS 403102. Three mice from the group were sacrificed at days 1, 2, 3, 4, 6, 8, 12, 24, and 56 after the single dose of ISIS 403102 was administered. A control group of 3 mice was injected with a single dose of PBS, and mice in this group were sacrificed on day 1. Mice in all groups were sacrificed by cervical dislocation following anesthesia with 150 mg/kg ketamine mixed with 10 mg/kg xylazine administered by intraperitoneal injection. Liver was harvested for RNA analysis and plasma was collected for clotting analysis (PT and aPTT).
RNA was extracted from liver tissue for real-time RT-PCR analysis of Factor 7. Results are presented as percent inhibition of Factor 7, relative to PBS control. […] Results are presented as percent inhibition of Factor 7, relative to control.

[2] = system: intrinsic pathway of blood coagulation; experiment: Activated Partial Thromboplastin Time (aPTT) in platelet poor plasma of treated BALB/c mice
Protocol: (§1) Prothrombin Time (PT) and Activated Partial Thromboplastin Time (aPTT) were measured using platelet poor plasma (PPP) from mice treated with ISIS 403102. PT and aPTT values provided in Table 20 are reported as International Normalized Ratio (INR) values. INR values for PT and aPTT were determined by dividing the PT or aPTT value for the experimental group by the PT or aPTT for the PBS treated group. This ratio was then raised to the power of the International Sensitivity Index (ISI) of the tissue factor used.
as §1, with “in Table 22 are reported” for “in Table 20 are reported”, “experimental group (i.e. 50 mg/kg treatment with ISIS 403102) by the” for “experimental group by the”
as §1, with “in Table 24 are reported” for “in Table 20 are reported”, “experimental group (i.e. 50 mg/kg treatment with ISIS 403102) by the” for “experimental group by the”

murine Factor 7 mRNA [3] = experiment: Liver Factor 7 mRNA in the FeCl3 induced venous thrombosis model; details: for % inhibition of Factor 7 mRNA: liver; for % inhibition of Factor 7 mRNA, relative to PBS control: BALB/c mice liver, two days after last dose
Protocol: Three groups of BALB/c mice were injected with 25 mg/kg, 37.5 mg/kg, or 50 mg/kg of ISIS 403102, administered subcutaneously twice a week for 3 weeks. Two control groups of BALB/c mice were treated with PBS, administered subcutaneously twice a week for 3 weeks. Thrombus formation was induced with FeCl3 in half of the mice while the rest of the mice were assayed for tail bleeding. Two days after receiving the last dose of ISIS 403102 or PBS, mice were anesthetized with 150 mg/kg ketamine mixed with 10 mg/kg xylazine administered by intraperitoneal injection. Thrombus formation was induced with FeCl3 in all groups of the VT mice except the first control group.
In mice undergoing FeCl3 treatment, thrombus formation was induced by applying a piece of filter paper (2×4 mm) pre-saturated with 10% FeCl3 solution directly on the vena cava. After 3 minutes of exposure, the filter paper was removed. Thirty minutes after the filter paper application, a fixed length of the vein containing the thrombus was dissected out for platelet analysis. Liver was collected for RNA analysis.
RNA was extracted from liver tissue for real-time RT-PCR analysis of Factor 7. Results are presented as percent inhibition of Factor 7, relative to PBS control.
ISIS 403102 and warfarin (Coumadin®) were evaluated in BALB/c mice. Four groups of BALB/c mice were treated with 5 mg/kg, 10 mg/kg, 20 mg/kg, or 40 mg/kg of ISIS 403102, administered subcutaneously twice a week for 3 weeks. Two days after receiving the last dose of ISIS 403102, mice were anesthetized with 150 mg/kg ketamine mixed with 10 mg/kg xylazine administered by intraperitoneal injection. A fifth group of BALB/c mice was treated with 3 mg/kg of warfarin, administered intraperioneally daily for 6 days. Four hours after the last dose of warfarin, mice were sacrificed. A control group of BALB/c mice were treated with PBS, administered subcutaneously twice a week for 3 weeks. Two days after the last dose of PBS, mice were anesthetized with 150 mg/kg ketamine mixed with 10 mg/kg xylazine administered by intraperitoneal injection. Thrombus formation was induced with FeCl3 in groups of mice except the first control group.

platelet factor-4 (PF-4) = experiment: Thrombus formation by real-time RT-PCR quantification of PF-4 in the FeCl3 induced venous thrombosis model; details: Example 16, BALB/c mice, vena cava

## CCATAGAACAGCTTCACAGG (sugars from the 5' end e5 d10 e5, backbone and methylation of C not given here) [ISIS 403102]
Murine Factor 7 mRNA [1]; day 1, relative to PBS control
  % Inhibition: 61%
Murine Factor 7 mRNA [1]; day 2, relative to PBS control
  % Inhibition: 87%
Murine Factor 7 mRNA [1]; day 3, relative to PBS control
  % Inhibition: 92%
Murine Factor 7 mRNA [1]; day 4, relative to PBS control
  % Inhibition: 92%
Murine Factor 7 mRNA [1]; day 6, relative to PBS control
  % Inhibition: 86%
Murine Factor 7 mRNA [1]; day 8, relative to PBS control
  % Inhibition: 80%
Murine Factor 7 mRNA [1]; day 12, relative to PBS control
  % Inhibition: 72%
Murine Factor 7 mRNA [1]; day 24, relative to PBS control
  % Inhibition: 11%
Murine Factor 7 mRNA [1]; day 56, relative to PBS control
  % Inhibition: 0%
Murine Factor 7 mRNA [1]
  duration of action: at least 24 days
  peak effect: ~4 days
Murine Factor 7 mRNA [1]; day 4
  inhibition of Factor 7 mRNA: 92%
Murine Factor 7 mRNA [1]; day 24
  inhibition of Factor 7 mRNA: 11%
Murine Factor 7 mRNA [1]; day 56
  Factor 7 mRNA levels: equal to that of the PBS control
[2]; BALB/c mice, 5 mg/kg, relative to PBS treated group
  aPTT INR: 1.05
[2]; BALB/c mice, 10 mg/kg, relative to PBS treated group
  aPTT INR: 1.04
[2]; BALB/c mice, 25 mg/kg, relative to PBS treated group
  aPTT INR: 1.09
[2]; BALB/c mice, 50 mg/kg, 1 dose, 1 day after last dose, relative to PBS group
  aPTT INR: 1.08 INR
[2]; BALB/c mice, 50 mg/kg, 1 dose, 3 days after last dose, relative to PBS group
  aPTT INR: 1.10 INR
[2]; BALB/c mice, 50 mg/kg, 2 doses, 3 days after last dose, relative to PBS group
  aPTT INR: 1.29 INR
[2]; BALB/c mice, 50 mg/kg, 4 doses, 3 days after last dose, relative to PBS group
  aPTT INR: 1.53 INR
[2]; BALB/c mice, 50 mg/kg, 6 doses, 2 days after last dose, relative to PBS group
  aPTT INR: 1.62 INR
[2]; BALB/c mice, 50 mg/kg, 6 doses, 7 days after last dose, relative to PBS group
  aPTT INR: 1.67 INR
[2]; BALB/c mice, 50 mg/kg, 6 doses, 14 days after last dose, relative to PBS group
  aPTT INR: 1.25 INR
[2]; BALB/c mice, 50 mg/kg, 6 doses, 28 days after last dose, relative to PBS group
  aPTT INR: 0.90 INR
[2]; BALB/c mice, 50 mg/kg, 6 doses, 42 days after last dose, relative to PBS group
  aPTT INR: 1.00 INR
[2]; BALB/c mice, 50 mg/kg, 6 doses, 56 days after last dose, relative to PBS group
  aPTT INR: 0.98 INR
[2]; BALB/c mice, 50 mg/kg, relative to PBS treated group
  aPTT INR: 1.16
[2]; BALB/c mice, single dose 50 mg/kg, day 1
  aPTT INR: 1.00
[2]; BALB/c mice, single dose 50 mg/kg, day 2
  aPTT INR: 1.05
[2]; BALB/c mice, single dose 50 mg/kg, day 3
  aPTT INR: 1.24
[2]; BALB/c mice, single dose 50 mg/kg, day 4
  aPTT INR: 1.15
[2]; BALB/c mice, single dose 50 mg/kg, day 6
  aPTT INR: 1.23
[2]; BALB/c mice, single dose 50 mg/kg, day 8
  aPTT INR: 1.18
[2]; BALB/c mice, single dose 50 mg/kg, day 12
  aPTT INR: 1.18
[2]; BALB/c mice, single dose 50 mg/kg, day 24
  aPTT INR: 1.02
[2]; BALB/c mice, single dose 50 mg/kg, day 56
  aPTT INR: 0.97
[2]; Example 11, 5-50 mg/kg twice a week for 3 weeks
  aPTT compared to the control: slightly prolonged
[2]; Example 13, 6 doses, from day 7 to day 56
  aPTT: decreased
[2]; single dose 50 mg/kg, day 4
  aPTT INR: 1.24
[2]; single dose 50 mg/kg, day 56
  aPTT INR: 0.97
[2]; single dose 50 mg/kg, starting value before the rise to day 4
  aPTT INR: 1.00
Murine Factor 7 mRNA [3]; Example 14, 25 mg/kg subcutaneously twice a week for 3 weeks
  % inhibition of Factor 7 mRNA: 24%
Murine Factor 7 mRNA [3]; Example 14, 37.5 mg/kg subcutaneously twice a week for 3 weeks
  % inhibition of Factor 7 mRNA: 74%
Murine Factor 7 mRNA [3]; Example 14, 50 mg/kg subcutaneously twice a week for 3 weeks
  % inhibition of Factor 7 mRNA: 69%
Murine Factor 7 mRNA [3]; Example 14, 25, 37.5, 50 mg/kg twice a week for 3 weeks
  reduction of Factor 7 mRNA in comparison to the PBS control: significant dose-dependent reduction of Factor 7 mRNA
Murine Factor 7 mRNA [3]; Example 15, 5, 10, 20, 40 mg/kg subcutaneously twice a week for 3 weeks
  reduction of Factor 7 mRNA in comparison to the PBS control: significant dose-dependent reduction of Factor 7 mRNA
Murine Factor 7 mRNA [3]; Example 15, 5 mg/kg s.c. twice a week for 3 weeks
  % inhibition of Factor 7 mRNA, relative to PBS control: 59%
Murine Factor 7 mRNA [3]; Example 15, 10 mg/kg s.c. twice a week for 3 weeks
  % inhibition of Factor 7 mRNA, relative to PBS control: 84%
Murine Factor 7 mRNA [3]; Example 15, 20 mg/kg s.c. twice a week for 3 weeks
  % inhibition of Factor 7 mRNA, relative to PBS control: 95%
Murine Factor 7 mRNA [3]; Example 15, 40 mg/kg s.c. twice a week for 3 weeks
  % inhibition of Factor 7 mRNA, relative to PBS control: 99%
Platelet factor-4 (PF-4); 1 mg/kg s.c. twice a week for 3 weeks
  PF-4 (percentage of PF-4 as compared to the PBS-treated control groups): 120%
Platelet factor-4 (PF-4); 3 mg/kg s.c. twice a week for 3 weeks
  PF-4 (percentage of PF-4 as compared to the PBS-treated control groups): 112%
